From US6140364A, “Arachidonic acid metabolite, 16-HETE” (The University of Vermont and State Agricultural College, priority 1996, dated 2000)

Assays:
[1] = test system: basal human neutrophils (adhesion to a gelatin matrix); experiment: Neutrophil adhesion to gelatin matrix, basal (unstimulated); type: cell-based; settings: for inhibition of neutrophil adhesion, basal: 20-HETE at ≤10 μM, 16-HETE isomers 10^-8 to 10^-5 M; for inhibition at 1 µM: Homo sapiens, Neutrophil, 10 min preincubation; for potency of neutrophil inhibition relative to the other stereoisomer: unstimulated and stimulated neutrophils
Protocol: (§1) Preparation of human polymorphonuclear leukocytes: Venous blood (60-70 ml) was collected from four healthy, normal volunteers into syringes containing heparin (1 U/ml). Polymorphonuclear leukocytes (PMNs) were isolated by a histopaque density gradient technique as previously described in Liu et al., Adhesion, Its role in Inflammatory Disease, Freeman and Co., New York, 1992, pp 189-192. Briefly, blood aliquots (6 ml) were layered over two layers (3 ml) of histopaque 1077 and 1119 in a conical centrifuge tube. The sample was then subjected to centrifugation at 100× g for 30 minutes at room temperature and the top layer, containing the neutrophils, was carefully collected. Hypotonic lysis was used to separate out the red blood cells. The neutrophils were then isolated from the sample by centrifugation (2000× g) and suspended in Hanks balanced salt solution (HBSS) containing 1 mM Ca^2+ and 0.8 mM Mg^2+ for studies involving arachidonic acid metabolism, and in M199 (with 1% BSA) for neutrophil adhesion assays. Total cells were counted using a hemocytometer and leukocytes were counted after staining with Wright-Giemsa stain. For each experiment, the cell preparations used contain ≥97% neutrophils, having ≥95% viability as determined by a trypan blue exclusion assay.
Neutrophil adhesion: Isolated neutrophils were resuspended in M199 containing 1% BSA with a final concentration of 3×10^6 cells per ml. Cells suspensions (1 ml) were incubated with or without a test compound, 16(S)-HETE, 16(R)-HETE, or 20-HETE (concentrations 1 nM to 10 μM) for 10 min and then placed into gelatin-coated wells and further incubated for 20 min at 37° C. The wells were washed three times with 0.5 ml of solution M199 to remove non-adherent cells. The adherent cells were then removed by addition of 0.4 ml of 0.25% trypsin-EDTA in 0.1 M PBS to the gelatin-coated wells and incubation for 10 min at 37° C. The incubates were transferred and the wells were washed with 0.1 ml of M199 solution. The amount of cells in combined solutions was counted. In some experiments, the adhesion of neutrophils was stimulated by addition of 1 U/ml of thrombin to neutrophil suspension immediately prior to the transfer of cells to the wells. Experiments were performed in duplicates for each concentration of HETE. The inhibition of adhesion was expressed as percent of cells remaining in suspension (non-adherent) relative to control. The range of adherent PMNs in control incubations was 6 to 23%. This was increased two-fold in the presence of thrombin.

[2] = test system: thrombin-stimulated human neutrophils (adhesion to a gelatin matrix); experiment: Neutrophil adhesion to gelatin matrix, thrombin-stimulated; type: cell-based; settings: for inhibition at 1 µM: Homo sapiens, Neutrophil, thrombin 1 U/ml, 3×10^6 cells/ml, 10 min preincubation
Protocol: as §1
Neutrophil adhesion: Isolated neutrophils were resuspended in M199 containing 1% BSA with a final concentration of 3×10^6 cells per ml. Cells suspensions (1 ml) were incubated with or without a test compound, 16(S)-HETE, 16(R)-HETE, or 20-HETE (concentrations 1 nM to 10 μM) for 10 min and then placed into gelatin-coated wells and further incubated for 20 min at 37° C. The wells were washed three times with 0.5 ml of solution M199 to remove non-adherent cells. The adherent cells were then removed by addition of 0.4 ml of 0.25% trypsin-EDTA in 0.1 M PBS to the gelatin-coated wells and incubation for 10 min at 37° C. […] The amount of cells in combined solutions was counted. […] The inhibition of adhesion was expressed as percent of cells remaining in suspension (non-adherent) relative to control. […]

[3] = test system: neutrophil aggregation stimulated by fMLP; experiment: fMLP-induced neutrophil aggregation in diluted whole human blood; type: cell-based; settings: for inhibition at 1 µM: 10 min, 1 μM HETE, N = 3 to 4, read-out: Aggregation (percent of inhibition from HETE untreated cells); for inhibition of fMLP-induced neutrophil aggregation: ≤10 μM
Protocol: (§2) Neutrophil activity: Stimulated neutrophil aggregation and oxygen free radical release were examined in whole human blood using a whole-blood aggregometer-chemiluminometer (Chronolog, Haverton, Pa.) as described Bednar et al. J. Thromb. Thrombol. 1, 179-185 (1995). Blood samples containing heparin (1 U/ml) as the anticoagulant were diluted in HBSS in proportion 1 to 9. Diluted blood aliquots (1 ml) were stirred (400 rpm) in a prewarmed (37° C.) siliconized cuvette containing cytochalasin b (5 μg/ml) and luminol (in 8 μl DMSO, 500 μM final concentration) and the test HETE (concentration 0.01 to 10 μM) for 10 min. Neutrophils were stimulated with a submaximal dose of FMLP (5×10^-7 M final concentration). The aggregation and chemiluminescence were simultaneously measured as changes of impedance and luminescence respectively. The fMLP-induced chemiluminescence was calculated as the peak height of the reaction.

[4] = test system: oxygen free radicals (OFR) release stimulated by fMLP; experiment: fMLP-stimulated oxygen free radical (OFR) release, chemiluminescence, in diluted human blood; type: cell-based; settings: 10 min, 1 μM HETE, fMLP 5×10^-7 M, N = 3 to 4, read-out: OFR Release (percent of inhibition from HETE untreated cells)
Protocol: as §2

[5] = test system: human neutrophils; experiment: Agonist activity on human neutrophils; type: cell-based; settings: ≤20 μM
[6] = test system: neutrophil aggregation; experiment: Neutrophil aggregation (inventors' finding, method not given at the place); type: cell-based
[7] = test system: intact canine and human neutrophils; settings: cited from earlier work
[8] = test system: platelet or other leukocyte; experiment: Platelet or other leukocyte activity or function
[9] = test system: formation of product A by human neutrophils; experiment: Inhibition of arachidonic acid metabolism (formation of product A) in intact human neutrophils; type: cell-based; settings: SKF 525A 100 μM, BW755C 94 μM, 10 min preincubation
Protocol: as §1, with “The neutrophils were then isolated from the sample by centrifugation (2000× g) and suspended in Hanks balanced salt solution (HBSS) containing 1 mM Ca^2+ and 0.8 mM Mg^2+ for studies involving arachidonic acid metabolism, and in M199 (with 1% BSA) for neutrophil adhesion assays.” left out, “assay. […]” for “assay.”
After ten minutes in arachidonic acid the reaction was terminated by the addition of cold methanol (four volumes). […] The effluent was passed through a UV detector (HP1050/ChemStation-Hewlett-Packard, Palo Alto, Calif.) and a radioactivity detector (Radiomatic, Meridian, Conn.) with a splitter (ratio 1:10) and collected in 1 ml fractions.

[10] = Neutrophil, fMLP 5×10^-7 M, diluted human blood

O=C(O)CCC/C=C\C/C=C\C/C=C\C/C=C\CCCCCO [20-HETE, reference compound]
inhibition of neutrophil adhesion, basal [1]: did not inhibit neutrophil adhesion
inhibition of neutrophil adhesion, thrombin-stimulated ([2]; thrombin-stimulated, 20-HETE at ≤10 μM, 16-HETE isomers 10^-8 to 10^-5 M): did not inhibit neutrophil adhesion
inhibition at 1 µM [3, 10]: 8.1 ± 2.6%
inhibition of fMLP-induced neutrophil aggregation [3]: not active
inhibition at 1 µM [4]: 3.9 ± 13.4%
agonist activity on human neutrophils [5]: no detectable agonist activity
inhibition of neutrophil aggregation [6]: neither 20-HETE nor 15-HETE inhibited neutrophil aggregation

CCCC[C@H](O)/C=C\C/C=C\C/C=C\C/C=C\CCCC(=O)O [16(S)-HETE, S-stereoisomer of 16-hydroxyeicosatetraenoic acid]
inhibition at 1 µM ([1]; gelatin matrix): 39 ± 8%
inhibition of neutrophil adhesion, basal [1]: inhibited neutrophil adhesion in a dose-dependent manner
potency of neutrophil inhibition relative to the other stereoisomer [1]: less potent
inhibition at 1 µM [2]: 40 ± 14%
inhibition at 1 µM [3, 10]: 7 ± 3.5%
inhibition of fMLP-induced neutrophil aggregation [3]: not active
inhibition at 1 µM [4]: 5.6 ± 16.7%
agonist activity on human neutrophils [5]: no detectable agonist activity

CCCCC[C@H](O)/C=C/C=C\C/C=C\C/C=C\CCCC(=O)O [15-HETE]
inhibition of neutrophil aggregation [6]: neither 20-HETE nor 15-HETE inhibited neutrophil aggregation

[C-]#[O+] [carbon monoxide]
inhibition of formation of polar arachidonic acid metabolites [7]: formation can be inhibited

CCCCC(O)/C=C\C/C=C\C/C=C\C/C=C\CCCC(=O)O (stereo not shown) [16-HETE, 16-hydroxyeicosatetraenoic acid]
effect on platelet or other leukocyte activity or function [8]: does not affect platelet or other leukocyte activity or function

CCCC(C(=O)OCCN(CC)CC)(c1ccccc1)c1ccccc1 [SKF525A]
inhibition of formation of product A [9]: can be inhibited with SKF525A
inhibition of formation of polar arachidonic acid metabolites [7]: formation can be inhibited

CCCC[C@@H](O)/C=C\C/C=C\C/C=C\C/C=C\CCCC(=O)O [16(R)-HETE, 16(R)-hydroxy-5,8,11,14-eicosatetraenoic acid]
inhibition of neutrophil adhesion to gelatin ([1]; 10 μM, preincubation): completely inhibited
inhibition at 1 µM ([1]; gelatin matrix): 73 ± 11%
inhibition of neutrophil adhesion, basal [1]: inhibited neutrophil adhesion in a dose-dependent manner
preincubation time required to inhibit adhesion ([1]; gelatin matrix): 10 min
potency of neutrophil inhibition relative to the other stereoisomer [1]: more potent than the effect observed with the opposite stereoisomer
inhibition at 1 µM [2]: 50 ± 4%
inhibition at 1 µM [3, 10]: 42 ± 11%
IC50 ([3]; Neutrophil, fMLP 5×10^-7 M, diluted human blood, read-out: IC50, inhibition of fMLP-induced neutrophil aggregation): 1200 nM
inhibition at 1 µM [4]: 8.9 ± 5.1%
agonist activity on human neutrophils [5]: no detectable agonist activity

NC1=NN(c2cccc(C(F)(F)F)c2)CC1 [BW755C]
inhibition of formation of product A [9]: not with BW755C
